Measurements from ChEMBL document CHEMBL5338745, “Factor XIa Inhibitors in Anticoagulation Therapy: Recent Advances and Perspectives” (J Med Chem, 2023).
One block for each molecule: values may come before it.

What was measured:
Plasma [1] = test: Anticoagulant activity in human plasma assessed as concentration required to 1.5 times activation of partial thromboplastin time; type: functional
Coagulation factor XI [2] = target: T1, Coagulation factor XI (Homo sapiens, UniProt P03951); test: Inhibition of FXIa (unknown origin) relative to control; settings: concentration not given here
T1 sequence (P03951 19-387 limits assumed): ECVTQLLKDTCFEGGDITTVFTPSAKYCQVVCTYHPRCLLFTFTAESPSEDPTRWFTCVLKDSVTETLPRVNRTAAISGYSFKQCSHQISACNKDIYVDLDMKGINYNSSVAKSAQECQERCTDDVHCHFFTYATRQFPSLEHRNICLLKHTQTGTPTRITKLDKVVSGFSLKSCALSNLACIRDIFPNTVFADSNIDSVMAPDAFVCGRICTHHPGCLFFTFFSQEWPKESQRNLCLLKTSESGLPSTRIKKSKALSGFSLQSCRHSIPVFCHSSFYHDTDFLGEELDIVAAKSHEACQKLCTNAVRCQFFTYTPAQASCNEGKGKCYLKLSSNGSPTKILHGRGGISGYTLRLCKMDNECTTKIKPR
T1 sequence (P03951 388-625 limits assumed): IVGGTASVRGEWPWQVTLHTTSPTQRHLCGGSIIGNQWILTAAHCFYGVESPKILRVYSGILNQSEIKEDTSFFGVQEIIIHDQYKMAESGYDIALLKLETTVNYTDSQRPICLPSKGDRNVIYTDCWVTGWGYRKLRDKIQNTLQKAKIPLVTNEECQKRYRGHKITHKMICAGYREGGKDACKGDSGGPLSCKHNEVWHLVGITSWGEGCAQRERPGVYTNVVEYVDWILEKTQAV

Coagulation factor XI [3] = target: T1, Coagulation factor XI; test: Inhibition of FXIa (unknown origin)
in vivo [4] = settings: rat, iv, 0.3 mg/kg
in vivo [5] = settings: rhesus monkey, iv, 3 mg/kg
Plasma kallikrein [6] = target: T2, Plasma kallikrein (Homo sapiens, UniProt P03952)
T2 sequence (P03952 20-390 limits assumed): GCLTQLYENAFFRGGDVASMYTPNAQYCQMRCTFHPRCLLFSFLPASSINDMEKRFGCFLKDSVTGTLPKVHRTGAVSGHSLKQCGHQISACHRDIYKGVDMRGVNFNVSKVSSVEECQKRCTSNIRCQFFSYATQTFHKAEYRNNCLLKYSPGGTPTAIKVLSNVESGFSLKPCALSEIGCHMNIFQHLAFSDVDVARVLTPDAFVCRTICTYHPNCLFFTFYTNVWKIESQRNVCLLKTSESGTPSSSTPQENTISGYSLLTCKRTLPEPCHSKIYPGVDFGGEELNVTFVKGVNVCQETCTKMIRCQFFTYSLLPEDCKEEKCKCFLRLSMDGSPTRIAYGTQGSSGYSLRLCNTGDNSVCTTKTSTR
T2 sequence (P03952 391-638 limits assumed): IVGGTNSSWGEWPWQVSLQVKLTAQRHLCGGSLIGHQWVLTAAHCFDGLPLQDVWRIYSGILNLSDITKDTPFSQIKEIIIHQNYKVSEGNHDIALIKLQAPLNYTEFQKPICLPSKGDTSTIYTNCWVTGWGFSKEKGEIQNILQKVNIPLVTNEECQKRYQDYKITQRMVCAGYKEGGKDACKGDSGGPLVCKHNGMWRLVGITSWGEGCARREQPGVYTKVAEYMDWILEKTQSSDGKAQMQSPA

Complement factor D = Complement factor D (Homo sapiens, UniProt P00746); test: Inhibition of FD (unknown origin)
Chain of Complement factor D (P00746 whole entry): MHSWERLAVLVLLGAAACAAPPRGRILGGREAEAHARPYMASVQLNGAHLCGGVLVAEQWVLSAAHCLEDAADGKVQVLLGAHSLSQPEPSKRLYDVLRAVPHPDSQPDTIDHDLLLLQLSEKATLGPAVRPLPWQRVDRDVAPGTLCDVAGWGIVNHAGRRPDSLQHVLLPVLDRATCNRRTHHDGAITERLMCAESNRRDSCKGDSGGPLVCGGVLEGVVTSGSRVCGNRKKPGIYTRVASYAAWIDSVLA

[7] = Selectivity index, ratio IC50 for FXIa (unknown origin) to IC50 for FD (unknown origin)
[8] = Half life in mouse; type: ADME, organism-based; settings: in vivo
Plasma [9] = test: Anticoagulant activity in human plasma assessed as concentration required to double the prothrombin time; type: functional
[10] = Clearance in mouse; type: ADME, organism-based; settings: in vivo
Plasma [11] = test: Anticoagulant activity in human plasma assessed as concentration required to double the activated partial thromboplastin time; type: functional
[12] = Oral bioavailability in mouse; type: ADME, organism-based; settings: in vivo
[13] = Oral bioavailability in Sprague-Dawley rat at 2 mg/kg by LC-MS/MS analysis; type: ADME, organism-based; settings: in vivo
[14] = Half life in Sprague-Dawley rat at 1 mg/kg, iv by LC-MS/MS analysis; type: ADME, organism-based; settings: in vivo
Plasma kallikrein [15] = target: T2, Plasma kallikrein; test: Binding affinity to PKal (unknown origin) assessed as inhibition constant
Coagulation factor XI [16] = target: T1, Coagulation factor XI; test: Binding affinity to FXIa (unknown origin) assessed as inhibition constant
[17] = Oral bioavailability in Sprague-Dawley rat at 5 to 10 mg/kg by LC-MS/MS analysis; type: ADME, organism-based; settings: in vivo, dose 5-10 mg/kg
[18] = Half life in Sprague-Dawley rat at 5 to 10 mg/kg, po by LC-MS/MS analysis; type: ADME, organism-based; settings: in vivo, dose 5-10 mg/kg
[19] = Clearance in Sprague-Dawley rat at 5 to 10 mg/kg, po by LC-MS/MS analysis; type: ADME, organism-based; settings: in vivo, dose 5-10 mg/kg
[20] = Metabolic stability in dog liver microsomes assessed as half life; type: ADME, Canis lupus familiaris, Microsome
[21] = Plasma protein binding in human at 10 pM incubated for 4 hrs by HPLC-MS/MS analysis; type: ADME, cell-free; settings: read-out: PPB
[22] = Oral bioavailability in dog; type: ADME, organism-based, Canis lupus familiaris; settings: in vivo
Neutrophil elastase = target: T3, Neutrophil elastase (Homo sapiens, UniProt P08246); test: Inhibition of human Neutrophil elastase
T3 sequence (P08246 whole entry): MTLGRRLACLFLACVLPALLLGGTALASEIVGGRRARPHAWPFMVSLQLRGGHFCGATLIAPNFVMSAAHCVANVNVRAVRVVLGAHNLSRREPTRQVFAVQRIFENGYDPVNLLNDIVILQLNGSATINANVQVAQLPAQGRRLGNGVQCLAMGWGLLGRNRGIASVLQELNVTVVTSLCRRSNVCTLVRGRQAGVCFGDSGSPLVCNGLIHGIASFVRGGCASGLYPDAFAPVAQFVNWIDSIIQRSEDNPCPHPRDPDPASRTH

Cathepsin G = target: T4, Cathepsin G (Homo sapiens, UniProt P08311); test: Inhibition of human cathepsin G
T4 sequence (P08311 whole entry): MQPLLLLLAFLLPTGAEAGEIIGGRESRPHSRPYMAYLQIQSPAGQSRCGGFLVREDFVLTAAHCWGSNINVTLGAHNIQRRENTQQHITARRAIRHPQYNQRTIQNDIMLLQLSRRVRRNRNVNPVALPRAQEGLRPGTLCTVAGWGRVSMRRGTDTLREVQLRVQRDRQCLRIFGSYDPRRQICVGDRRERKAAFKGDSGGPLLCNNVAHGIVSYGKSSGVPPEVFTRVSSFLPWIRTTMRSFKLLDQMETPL

IC50 (Coagulation factor XI [3]): 3 nM
Structure (SMILES): COc1cn(C(Cc2ccccc2)c2nc3cc(C(=O)O)ccc3[nH]2)c(=O)cc1-c1cc(Cl)ccc1-n1cnnn1 (stereo unspecified)

clearance (in vivo [4]): 13.8 mL/min/kg | clearance (in vivo [5]): 2 mL/min/kg
Structure (SMILES): CC[C@@H](C(=O)Nc1ccc(C(N)=O)c(F)c1)n1cc(OC)c(-c2cc(Cl)ccc2-n2cc(C(F)(F)F)nn2)cc1=O

IC50 (Plasma kallikrein [6]): 60 nM | IC50 (Coagulation factor XI [3]): 1.7 nM
Structure (SMILES): C[C@H]1COc2cn([C@@H](CC3CCCCO3)C(=O)Nc3ccc(C(N)=O)cc3)c(=O)cc2-c2c(ccc(Cl)c2F)C1 (stereo partly specified)

IC50 (Plasma kallikrein [6]): 1 nM | IC50 (Complement factor D): > 5000 nM | Ratio IC50 [7]: 10000 | half-life [8]: 3.73 h | clearance [10]: 11 mL/min/kg | IC50 (Coagulation factor XI [3]): 0.4 nM | bioavailability [12]: 100%
Structure (SMILES): CC(C)c1cc(-c2ccc3c(c2)[C@H](N)CO3)cc([C@@H](O)CN2CCc3cccc(C(=O)O)c32)c1
EC (Plasma [9]): 28.7 µM | EC (Plasma [11]): 1.3 µM

IC50 (Coagulation factor XI [3]): 6.4 nM
Structure (SMILES): O=C(O)c1cc2cc(NC(=O)[C@@H]3CCc4cc(-c5cc(Cl)ccc5-n5cnnn5)cc(=O)n43)ccc2[nH]1

Ki (Plasma kallikrein [15]): 1790 nM | Ki (Coagulation factor XI [16]): 5 nM
Structure (SMILES): COC(=O)NCC[C@@H]1Cc2cccc(c2)[C@@H](n2cnc(-c3cc(Cl)ccc3-n3cc(C(F)(F)F)cn3)cc2=O)CCC[C@@H](C)C(=O)N1

Ratio IC50 [7]: 700 | half-life [8]: 9 h
Structure (SMILES): CC(C)c1cc(CCN2CCc3cccc(C(=O)O)c32)cc(-c2ccc3c(c2)[C@H](N)CO3)c1

IC50 (Coagulation factor XI [3]): 0.32 nM
Structure (SMILES): Nc1ccc(-c2[nH]c(Cn3c4c(c(-c5cc(Cl)ccc5-n5cnnn5)cc3=O)C(=O)CC4)nc2F)c(F)n1

IC50 (Plasma kallikrein [6]): 13 nM | bioavailability [17]: 53.4% | half-life [18]: 3.25 h | CL/F [19]: 19.6 mL/min/kg | IC50 (Coagulation factor XI [3]): 1.8 nM
Structure (SMILES): O=c1cc(-c2c(-n3cnnn3)ccc(Cl)c2F)cc2n1[C@H](c1ccc(-c3ccnc(CO)c3F)[nH]1)CC2

IC50 (Coagulation factor XI [3]): 1.73 nM
Structure (SMILES): O=C(O)c1ccc(NC(=O)[C@H](Cc2ccccc2)N2CCC(c3cc(Cl)ccc3-n3cc(Cl)nn3)=CC2=O)cc1

The next lines start with the molecule.

Structure (SMILES): C[C@@H]1CCC[C@H](n2cnc(-c3cc(Cl)ccc3-n3cc(Cl)nn3)cc2=O)c2cc(ccn2)-c2c(cnn2C(F)F)NC1=O [MILVEXIAN]
EC (Plasma [1]): 0.5 µM

Structure (SMILES): Cc1ccc(C(=O)Nc2ccc(CP(=O)(O)O)cc2CP(=O)(O)O)cc1NC(=O)c1cccc(NC(=O)Nc2cccc(C(=O)Nc3cc(C(=O)Nc4ccc(CP(=O)(O)O)cc4CP(=O)(O)O)ccc3C)c2)c1
inhibition (Coagulation factor XI [2]): 68%

Structure (SMILES): Nc1ccc(-c2cnc([C@H](CC3CC3)c3ccc(-c4cc(Cl)ccc4-n4cnnn4)c[n+]3[O-])[nH]2)c(Cl)n1
IC50 (Plasma kallikrein [6]): 80 nM | IC50 (Coagulation factor XI [3]): 0.32 nM

Structure (SMILES): Nc1ccc(-c2nc(F)c([C@@H]3[C@H]4C[C@H]4c4cc(-c5cc(Cl)ccc5-n5cnnn5)cc(=O)n43)[nH]2)c(F)n1
bioavailability [13]: 25.3% | IC50 (Coagulation factor XI [3]): 3.3 nM | half-life [14]: 1.6 h

Structure (SMILES): Nc1ccc(-c2nc([C@H]3CCc4cc(-c5cc(Cl)ccc5-n5cnnn5)cc(=O)n43)c(F)[nH]2)c(F)n1 [ONO-7684]
Ki (Coagulation factor XI [3]): 2 nM

Structure (SMILES): CC[C@@H](NC(=O)N1C(=O)[C@H](Cc2ccnc(N)c2)[C@H]1C(=O)N(C)c1nccn1C)c1ccccc1
half-life [20]: 2.02 h | fraction unbound at 4 h, 1e-05 µM [21]: 0.5 | IC50 (Coagulation factor XI [3]): < 10 nM | bioavailability [22]: > 33%

Structure (SMILES): O=C(Nc1ccc(C(=O)Nc2ccc(C(=O)Nc3ccc(OS(=O)(=O)O)c4cc(OS(=O)(=O)O)cc(OS(=O)(=O)O)c34)cc2)cc1)Nc1ccc(C(=O)Nc2ccc(C(=O)Nc3ccc(OS(=O)(=O)O)c4cc(OS(=O)(=O)O)cc(OS(=O)(=O)O)c34)cc2)cc1
IC50 (Neutrophil elastase): 220 nM | IC50 (Cathepsin G): 570 nM | IC50 (Coagulation factor XI [3]): 4600 nM
